Experiment: Metabolic stability in liver microsomes (human)
Assay type: in vitro ADME
Experimental: Buffers A-C were prepared for use in the metabolic study. The buffers were as follows: Buffer A: 1.0 L of 0.1 M monobasic Potassium Phosphate buffer containing 1.0 mM EDTA; Buffer B: 1.0 L of 0.1 M Dibasic Potassium Phosphate buffer containing 1.0 mM EDTA; and Buffer C: 0.1 M Potassium Phosphate buffer, 1.0 mM EDTA, pH 7.4 by titrating 700 mL of buffer B with buffer A while monitoring with the pH meter.
Ketanserin was used as the reference compound. Reference compound and test compound spiking solutions (500 μM spiking solution) were prepared by adding 10 μL of 10 mM DMSO stock solution into 190 μL ACN. 1.5 μL of 500 μM spiking solution (0.75 mg/mL) and 18.75 μL of 20 mg/mL liver microsomes were added into 479.75 μL of Buffer C on ice.
A 6 mM NADPH stock solution was prepared by dissolving an appropriate amount of NADPH into buffer C. 30 μL of 1.5 μM spiking solution containing 0.75 mg/mL microsomes solution was dispensed to the assay plates designated for different time points (0-, 5-, 15-, 30-, 45-min) on ice. […] All the other plates were pre-incubated at 37° C. for 5 minutes. 15 μL of 6 mM NADPH stock solution was added to the plates to start the reaction and time. At 5-min, 15-min, 30-min, and 45-min, 135 μL of ACN containing internal standard were added to the wells of corresponding plates, respectively, to stop the reaction. […]

Structure (SMILES): CC(C)(NC(=O)[C@H]1[C@@H]2CNC[C@H]1C2)c1ncc2c(Br)cccn12 [Compound 8, (1R,5S,6r)-N-(2-(8-bromoimidazo[1,5-a]pyridin-3-yl)propan-2-yl)-3-azabicyclo[3.1.1]heptane-6-carboxamide]
- CLint scaled at 1 μM (pH 7.4): 29.5 mL/min/kg
- half-life at 1 μM (pH 7.4, read-out: Metabolic stability T½): 1.4 h

— patent US20240174693A1, “SOMATOSTATIN RECEPTOR SUBTYPE 4 (SSTR4) AGONISTS AND THEIR APPLICATIONS” (Humanwell Pharmaceutical US, priority 2022, published 2024)
